Data from patent US20100227869A1, “ENANTIOPURE QUINUCLIDINYLOXY PYRIDAZINES AND THEIR USE AS NICOTINIC ACETYLCHOLINE RECEPTOR LIGANDS” (priority 2006, published 2010).

## C(#Cc1ccc(O[C@H]2CN3CCC2CC3)nn1)c1ccccc1.O=C(O)/C=C/C(=O)O
  melting point: 151.3 to 157.3 °C

## C(#Cc1ccc(O[C@@H]2CN3CCC2CC3)nn1)c1ccccc1.O=C(O)/C=C/C(=O)O
  melting point: 154.5 to 159.4 °C
